Laboratory results reported in US9694024B2 (priority 2010, dated 2017).
“Also recorded” adds a separate entry of the source. Like-named read-outs stand apart in the source and are kept apart here.

Legend:
[1] = tested on: human PBMCs; assay: Intracellular TFV-diphosphate in human PBMCs in vitro; details: human PBMCs (IL-2/PHA) after incubation with 1 μM CMX157 for 48 hours
[2] = cited from earlier work
[3] = tested on: HIV-1IIIB; assay: Anti-HIV-1 cytoprotection assay (CEM-SS, XTT)
[4] = tested on: CEM-SS cells; assay: Toxicity XTT in CEM-SS cells
[5] = tested on: human PBMCs; details: activated human PBMCs, cited from earlier work
[6] = molecular target: human OAT1 (organic anion transporter1) (Homo sapiens (Human), UniProt Q4U2R8); assay: hOAT1 mediated uptake in MDCK-II cells; details: for Cellular Accumulation (control): control vector cells of hOAT1 test; for Cellular Accumulation (transporter): hOAT1 expressing MDCK-II cells
[7] = Phase I single dose study, TFV-diphosphate in PBMCs of healthy volunteers; type: in vivo, human; details: single 400 mg dose of CMX157
Description: (§1) The study was a randomized, blinded, dose escalation trial to evaluate safety, tolerability, and pharmacokinetics. Healthy volunteers in each cohort (6 active/2 placebo) received a single dose of 25, 50, 100, 200 or 400 mg. An additional cohort received a standard dose of Viread for comparison of TFV-PP levels. For tenofovir anabolite analysis, PBMCs were lysed with 70% ice cold methanol and centrifuged; supernatants were analyzed using LC/MS/MS. The clinical samples were split into two aliquots. One aliquot was used for analysis of CMX157; following addition of an internal standard, these samples were evaporated to dryness prior to reconstitution and analysis. The second aliquot was for analysis of TFV, TFV-monophosphate and TFV-diphosphate; following addition of internal standards, samples were vortexed and centrifuged prior to analysis.

[8] = tested on: XMRV; assay: XMRV antiviral cytoprotection assay (PG-4 cells, XTT); type: cell-based; details: 144 h, 6 day assay, read-out: EC50s for XMRV
Description: An XMRV antiviral cytoprotection assay was conducted using PG-4 cells (ATCC# CRL-2032; feline astrocytes) and XMRV was collected from the supernatant of 22Rv1 human prostate cancer cells (ATCC# CRL-2505). Inhibition of cytopathic effect was quantified using XTT following a 6 day assay. Ribavirin and AZT were evaluated in parallel as control compounds.

[9] = molecular target: human OAT3 (organic anion transporter3) (Homo sapiens (Human), UniProt Q8TCC7); assay: hOAT3 mediated uptake in MDCK-II cells; type: in vitro ADME; details: for Cellular Accumulation (control): control vector cells of hOAT3 test; for Cellular Accumulation (transporter): hOAT3 expressing MDCK-II cells
Description: Experimental: The uptake test system was comprised of a polarized monolayer of MCDK-II cells grown on permeable supports. The MDCK-II cells were treated to express the transporter of interest or treated with a control vector.
The uptake of 2 μM [^3H]-p-aminohippurate (PAH) and 0.75 μM [^3H]-estrone-3-sulfate (E-3-S) in the absence and presence of the reference inhibitor was determined by radiometric detection. The uptake of CMX157 and tenofovir was in the absence and presence of the reference inhibitor or 20% human serum was determined by LC/MS/MS. Experiments were performed under the same conditions for the cells expressing the transporter or those treated with the control vector.
Net Transporter Mediated Uptake=(Cellular accumulation in the presence of the transporter)−(Cellular accumulation in the absence of the transporter) Results: The net hOAT1 mediated uptake of tenofovir in the presence and absence of 100 μM probenecid or 20% human serum is shown in FIG. 8. The transport of tenofovir is inhibited by probenecid and relatively unchanged by the presence of 20% human serum. OAT3 also appeared to mediate the transport of tenofovir. The effect of probenecid, however, was minimal. The presence of 20% human serum in the OAT3 experiment reduced the OAT3 mediated transport of tenofovir.

[10] = tested on: HIV-1 subtypes (A-G, O); assay: Activity against HIV-1 subtypes in PBMCs; type: cell-based; details: Human immunodeficiency virus 1, PBMC
[11] = Phase I single dose study, safety and tolerability; type: in vivo, human; details: healthy volunteers, single doses 25 mg to 400 mg
Description: as §1

[12] = Phase I single dose study, plasma pharmacokinetics; type: in vivo, human; details: for Cmax / AUC(0-inf): human; for Cmax / AUC(0-inf) / TFV AUCINF / TFV Cmax: plasma; for AUC(0-inf): read-out: CMX157 AUCINF
Description: as §1

[13] = Human immunodeficiency virus 1, IIIB, CEM-SS, 144 h, read-out: CEMSS/IIIB EC50
[14] = hOAT1, substrate alone (PAH 2 μM)
[15] = hOAT3, substrate alone (E3S 0.75 μM)
[16] = single oral dose CMX157 200 mg, mean
[17] = single oral dose CMX157 400 mg, mean

CC(Cn1cnc2c(N)ncnc21)OCP(=O)(O)OP(=O)(O)OP(=O)(O)O (stereo in doubt) [TFV-PP, tenofovir-diphosphate]
in vitro intracellular half-life of TFV-PP (t1/2) [1]: 79.2 h | median human TFV-PP ([2]; Kiser et al. JAIDS 2008:47): 0.076 pmol/10^6

Cc1cn([C@H]2C[C@H](N=[N+]=[N-])[C@@H](CO)O2)c(=O)[nH]c1=O [AZT, 3′-azido-2′,3′-dideoxythymidine, reference compound]
EC50 ([3]; Human immunodeficiency virus 1, IIIB, CEM-SS): 3 nM | EC50 [3, 13]: 3 nM | Therapeutic Index ([3]; TC50/EC50, CEM-SS, HIV-1 IIIB): >33.3 | CEMSS TC50 [4]: >100 nM

CCCCCCCCCCCCCCCCOCCCOP(=O)([O-])CO[C@H](C)Cn1cnc2c(N)ncnc21.[K+] [CMX157 K^+ salt]
EC50 ([3]; CEM-SS cells, HIV-1 IIIB): < 30 nM | EC50 ([3]; read-out: CEMSS/IIIB EC50, CEM-SS cells, HIV-1 IIIB, 6 days, XTT): < 30 nM | CEMSS TC50 [4]: 5200 nM

CCCCCCCCCCCCCCCCOCCCOP(=O)(O)CO[C@H](C)Cn1cnc2c(N)ncnc21 [CMX157, 3-(hexadecyloxy)propyl hydrogen ((R)-1-(6-amino-9H-purin 9-yl)propan-2-yloxy)methylphosphonate]
TFV-diphosphate produced ([5]; 10 nM CMX157 (Lanier 2010)): 70 fmoles per million cells | Cellular Accumulation (control) ([6]; + 100 μM probenecid): 40.4 ± 5.17 pmol/min/cm^2 | Cellular Accumulation (control) ([6]; + 20% human serum): 6.46 ± 0.168 pmol/min/cm^2 | Cellular Accumulation (control) ([6]; substrate alone (PAH 2 μM)): 50.3 ± 1.30 pmol/min/cm^2 | Net Transporter Mediated Cellular Accumulation ([6]; hOAT1, + 100 μM probenecid): −14.5 ± 4.65 pmol/min/cm^2 | Net Transporter Mediated Cellular Accumulation ([6]; hOAT1, + 20% human serum): −0.954 ± 1.70 pmol/min/cm^2 | Net Transporter Mediated Cellular Accumulation [6, 14]: −13.0 ± 0.0465 pmol/min/cm^2 | Cellular Accumulation (transporter) ([6]; + 100 μM probenecid): 25.9 ± 4.65 pmol/min/cm^2 | Cellular Accumulation (transporter) ([6]; + 20% human serum): 5.51 ± 1.70 pmol/min/cm^2 | Cellular Accumulation (transporter) ([6]; substrate alone (PAH 2 μM)): 37.3 ± 0.0465 pmol/min/cm^2 | TFV-diphosphate in PBMCs [7]: measurable in all subjects; also recorded: measurable in PBMCs from all patients | TFV-diphosphate in PBMCs 6 days after dosing [7]: all but one had detectable levels | EC50 [8]: 3 to 500 nM | substrate for human OAT3 [9]: did not appear to be a substrate | Cellular Accumulation (control) ([9]; + 100 μM probenecid): 49.5 ± 2.65 pmol/min/cm^2 | Cellular Accumulation (control) ([9]; + 20% human serum): 4.90 ± 1.57 pmol/min/cm^2 | Cellular Accumulation (control) ([9]; substrate alone (E3S 0.75 μM)): 39.5 ± 11.6 pmol/min/cm^2 | Net Transporter Mediated Cellular Accumulation ([9]; hOAT3, + 100 μM probenecid): −23.4 ± 7.59 pmol/min/cm^2 | Net Transporter Mediated Cellular Accumulation ([9]; hOAT3, + 20% human serum): 1.26 ± 0.396 pmol/min/cm^2 | Net Transporter Mediated Cellular Accumulation [9, 15]: −8.72 pmol/min/cm^2 | Cellular Accumulation (transporter) ([9]; + 100 μM probenecid): 26.1 ± 7.59 pmol/min/cm^2 | Cellular Accumulation (transporter) ([9]; + 20% human serum): 6.16 ± 0.396 pmol/min/cm^2 | Cellular Accumulation (transporter) ([9]; substrate alone (E3S 0.75 μM)): 30.7 pmol/min/cm^2 | IC50 ([10]; previously tested, read-out: IC50s against HIV-1 subtypes (A-G, O)): 1 to 7 nM | EC50 ([10]; read-out: EC50 against all major subtypes of HIV-1 in PBMCs): 0.2 to 7.18 nM | serious and remarkable adverse events [11]: No SAEs or remarkable AEs were reported | subjects reporting mild headache [11]: 3 | tolerability [11]: well tolerated | change of CMX157 plasma Cmax and AUC with dose ([12]; 25 mg to 400 mg single oral dose): approximate linear increase; also recorded: increased linearly with dose | Cmax ([12]; oral, all single dose groups (25 to 400 mg), read-out: Cmax levels): > 10 nM | AUC(0-inf) [12, 16]: 210 ng·h/mL | Cmax ([12]; single oral dose CMX157 200 mg, mean, read-out: CMX157 Cmax): 74 ng/mL | AUC(0-inf) [12, 17]: 376 ng·h/mL | Cmax ([12]; single oral dose CMX157 400 mg, mean, read-out: CMX157 Cmax): 165 ng/mL

C[C@H](Cn1cnc2c(N)ncnc21)OCP(=O)(O)OCCCO [CMX157-210]
EC50 [3, 13]: > 10000 nM | CEMSS TC50 [4]: >10000 nM

C[C@H](Cn1cnc2c(N)ncnc21)OCP(=O)(O)OCCCOCC(=O)O [CMX157-211]
EC50 [3, 13]: > 10000 nM | CEMSS TC50 [4]: >10000 nM

C[C@H](Cn1cnc2c(N)ncnc21)OCP(=O)(O)OCCCOCCCC(=O)O [CMX157-220]
EC50 [3, 13]: > 10000 nM | CEMSS TC50 [4]: >10000 nM

C[C@]12CC[C@@H]3c4ccc(OS(=O)(=O)O)cc4CC[C@H]3[C@@H]1CCC2=O [E3S, estrone-3-sulfate]
Cellular Accumulation (control) ([9]; substrate alone (E3S 0.75 μM)): 39.5 ± 11.6 pmol/min/cm^2 | Net Transporter Mediated Cellular Accumulation [9, 15]: −8.72 pmol/min/cm^2 | Cellular Accumulation (transporter) ([9]; substrate alone (E3S 0.75 μM)): 30.7 pmol/min/cm^2

C[C@H](Cn1cnc2c(N)ncnc21)OCP(=O)(O)O [Tenofovir, (R)-9-(2-phosphonylmethoxypropyl)adenine, reference compound]
Cmax ([2]; VIREAD package insert 2007): ~1000 nM | TFV-diphosphate produced ([5]; 1 μM TFV): 50 fmoles per million cells | substrate for human OAT1 ([6]; MDCK): appeared to be a substrate | Cellular Accumulation (control) ([6]; + 100 μM probenecid): 2.22 ± 0.995 pmol/min/cm^2 | Cellular Accumulation (control) ([6]; + 20% human serum): 1.77 ± 1.13 pmol/min/cm^2 | Cellular Accumulation (control) ([6]; substrate alone (PAH 2 μM)): 2.45 ± 0.197 pmol/min/cm^2 | Net Transporter Mediated Cellular Accumulation ([6]; hOAT1, + 100 μM probenecid): 4.49 ± 1.46 pmol/min/cm^2 | Net Transporter Mediated Cellular Accumulation ([6]; hOAT1, + 20% human serum): 20.0 ± 3.45 pmol/min/cm^2 | Net Transporter Mediated Cellular Accumulation [6, 14]: 19.5 ± 4.04 pmol/min/cm^2 | Cellular Accumulation (transporter) ([6]; + 100 μM probenecid): 6.71 ± 1.46 pmol/min/cm^2 | Cellular Accumulation (transporter) ([6]; + 20% human serum): 21.8 ± 3.45 pmol/min/cm^2 | Cellular Accumulation (transporter) ([6]; substrate alone (PAH 2 μM)): 21.9 ± 4.04 pmol/min/cm^2 | Cellular Accumulation (control) ([9]; + 100 μM probenecid): 1.94 ± 0.345 pmol/min/cm^2 | Cellular Accumulation (control) ([9]; + 20% human serum): 2.28 ± 1.24 pmol/min/cm^2 | Cellular Accumulation (control) ([9]; substrate alone (E3S 0.75 μM)): 2.65 ± 1.96 pmol/min/cm^2 | Net Transporter Mediated Cellular Accumulation ([9]; hOAT3, + 100 μM probenecid): 1.35 ± 0.364 pmol/min/cm^2 | Net Transporter Mediated Cellular Accumulation ([9]; hOAT3, + 20% human serum): −0.292 ± 0.0591 pmol/min/cm^2 | Net Transporter Mediated Cellular Accumulation [9, 15]: 1.03 ± 0.591 pmol/min/cm^2 | Cellular Accumulation (transporter) ([9]; + 100 μM probenecid): 3.29 ± 0.364 pmol/min/cm^2 | Cellular Accumulation (transporter) ([9]; + 20% human serum): 1.99 ± 0.0591 pmol/min/cm^2 | Cellular Accumulation (transporter) ([9]; substrate alone (E3S 0.75 μM)): 3.68 ± 0.591 pmol/min/cm^2 | TFV AUCINF [12, 16]: 283 ng·h/mL | TFV Cmax [12, 16]: 16 ng/mL | TFV AUCINF [12, 17]: 371 ng·h/mL | TFV Cmax [12, 17]: 27 ng/mL
